Results: ChEMBL document CHEMBL4673346, “Discovery of a benzimidazole series as the first highly potent and selective ACSL1 inhibitors” (Bioorg Med Chem Lett, 2021)
Converted amounts (≈) assume the structure as drawn.

Assays:
[1] = Tmax in rat at 1 mg/kg, po; format: ADME, organism-based; settings: in vivo
Mus musculus [2] = assay: In vivo inhibition of ACSL1 in mouse assessed as reduction in acyl-coA production in liver administered orally using oleic acid as substrate and measured after 17 hrs; format: functional, organism-based
[3] = target: T1, Long-chain-fatty-acid--CoA ligase 1 (Mus musculus, UniProt P41216); assay: Inhibition of recombinant mouse ACSL1 assessed as reduction in […] prodution incubated for 90 mins in presence of Coenzyme A, ATP and MgCl2 by MALDI-TOF MS analysis
T1 sequence (P41216 whole entry): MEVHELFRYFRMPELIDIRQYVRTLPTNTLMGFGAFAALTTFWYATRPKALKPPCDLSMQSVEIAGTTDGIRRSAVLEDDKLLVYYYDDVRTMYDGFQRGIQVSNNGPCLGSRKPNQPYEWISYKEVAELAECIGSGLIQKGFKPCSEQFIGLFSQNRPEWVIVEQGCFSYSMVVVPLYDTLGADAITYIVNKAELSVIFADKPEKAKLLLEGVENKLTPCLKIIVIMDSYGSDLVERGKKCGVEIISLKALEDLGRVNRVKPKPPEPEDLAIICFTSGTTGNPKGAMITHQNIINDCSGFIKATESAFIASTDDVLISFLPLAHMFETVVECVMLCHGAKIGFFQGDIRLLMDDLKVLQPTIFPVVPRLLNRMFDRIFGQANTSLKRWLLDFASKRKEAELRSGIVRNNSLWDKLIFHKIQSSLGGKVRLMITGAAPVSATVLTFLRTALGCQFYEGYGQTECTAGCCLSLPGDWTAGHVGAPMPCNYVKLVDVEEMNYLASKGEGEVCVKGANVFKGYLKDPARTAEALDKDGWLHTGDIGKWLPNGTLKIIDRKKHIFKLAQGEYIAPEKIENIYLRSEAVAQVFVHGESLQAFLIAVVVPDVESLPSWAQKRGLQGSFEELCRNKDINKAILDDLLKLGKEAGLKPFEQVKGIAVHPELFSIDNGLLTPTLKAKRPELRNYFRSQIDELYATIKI

[4] = Solubility of compound in pH 1.2; format: physicochemical; settings: buffer
[5] = Solubility of compound in pH 6.8; format: physicochemical; settings: buffer
Mus musculus [6] = assay: In vivo inhibition of ACSL1 in mouse assessed as reduction in acyl-coA production in liver administered orally using palmitoleic acid as substrate and measured after 17 hrs; format: functional, organism-based; settings: dose 0.3-1 mg/kg
Cytochrome P450 2C19 = Cytochrome P450 2C19 (Homo sapiens, UniProt P33261); assay: Inhibition of CYP2C19 (unknown origin); format: ADME
Chain of Cytochrome P450 2C19 (P33261 whole entry): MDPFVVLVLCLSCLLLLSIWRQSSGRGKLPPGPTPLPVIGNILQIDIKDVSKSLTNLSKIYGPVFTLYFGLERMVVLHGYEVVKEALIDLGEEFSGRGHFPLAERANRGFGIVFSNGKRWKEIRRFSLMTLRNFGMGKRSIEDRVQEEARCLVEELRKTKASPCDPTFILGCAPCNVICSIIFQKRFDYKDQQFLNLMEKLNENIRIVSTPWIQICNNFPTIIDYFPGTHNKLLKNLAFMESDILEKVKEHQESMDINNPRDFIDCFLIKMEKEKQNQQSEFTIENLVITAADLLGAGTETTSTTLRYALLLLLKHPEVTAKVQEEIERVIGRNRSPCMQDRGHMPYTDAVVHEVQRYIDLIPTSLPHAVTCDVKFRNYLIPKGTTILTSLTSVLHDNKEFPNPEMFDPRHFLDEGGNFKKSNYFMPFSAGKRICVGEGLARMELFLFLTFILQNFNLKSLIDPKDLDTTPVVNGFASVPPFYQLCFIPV

Cytochrome P450 3A4 = Cytochrome P450 3A4 (Homo sapiens, UniProt P08684); assay: Inhibition of CYP3A4 (unknown origin); format: ADME
Chain of Cytochrome P450 3A4 (P08684 whole entry): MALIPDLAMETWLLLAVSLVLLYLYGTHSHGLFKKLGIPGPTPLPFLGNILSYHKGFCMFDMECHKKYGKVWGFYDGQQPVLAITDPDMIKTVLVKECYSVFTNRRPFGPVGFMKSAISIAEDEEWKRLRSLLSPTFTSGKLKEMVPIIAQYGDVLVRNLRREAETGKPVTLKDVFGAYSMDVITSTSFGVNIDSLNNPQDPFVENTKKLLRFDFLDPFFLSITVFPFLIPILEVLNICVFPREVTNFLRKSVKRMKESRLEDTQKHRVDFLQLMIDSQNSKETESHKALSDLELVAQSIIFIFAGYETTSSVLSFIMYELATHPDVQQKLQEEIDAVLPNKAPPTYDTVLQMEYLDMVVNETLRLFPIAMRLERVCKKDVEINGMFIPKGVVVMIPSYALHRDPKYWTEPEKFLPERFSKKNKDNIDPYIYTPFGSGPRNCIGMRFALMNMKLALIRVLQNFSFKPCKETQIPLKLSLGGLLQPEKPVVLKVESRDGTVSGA

Cytochrome P450 1A2 = target: T2, Cytochrome P450 1A2 (Homo sapiens, UniProt P05177); assay: Inhibition of CYP1A2 (unknown origin); format: ADME
T2 sequence (P05177 whole entry): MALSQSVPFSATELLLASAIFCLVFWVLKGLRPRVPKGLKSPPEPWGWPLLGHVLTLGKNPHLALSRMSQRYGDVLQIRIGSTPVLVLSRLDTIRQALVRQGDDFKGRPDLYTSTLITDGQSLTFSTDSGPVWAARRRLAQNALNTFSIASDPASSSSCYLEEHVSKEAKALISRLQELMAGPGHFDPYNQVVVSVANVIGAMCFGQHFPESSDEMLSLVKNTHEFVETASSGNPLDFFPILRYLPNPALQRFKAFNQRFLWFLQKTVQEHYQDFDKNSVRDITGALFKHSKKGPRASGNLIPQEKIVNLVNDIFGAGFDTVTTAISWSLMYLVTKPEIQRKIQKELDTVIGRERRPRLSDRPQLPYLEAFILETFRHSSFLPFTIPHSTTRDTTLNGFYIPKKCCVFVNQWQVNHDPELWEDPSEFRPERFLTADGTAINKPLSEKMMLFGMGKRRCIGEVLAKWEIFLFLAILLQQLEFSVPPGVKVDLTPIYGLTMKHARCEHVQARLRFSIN

[7] = Fraction unbound in rat plasma; format: ADME, cell-free
[8] = AUC in rat at 1 mg/kg, po; format: ADME, organism-based; set-up: dose 1 mg/kg; settings: in vivo
[9] = target: Long-chain-fatty-acid--CoA ligase 4 (Homo sapiens, UniProt O60488); assay: Inhibition of recombinant human ACSL4 assessed as reduction in […] prodution incubated for 120 mins in presence of Coenzyme A, ATP and MgCl2 by MALDI-TOF MS analysis
Chain of Long-chain-fatty-acid--CoA ligase 4 (O60488 whole entry): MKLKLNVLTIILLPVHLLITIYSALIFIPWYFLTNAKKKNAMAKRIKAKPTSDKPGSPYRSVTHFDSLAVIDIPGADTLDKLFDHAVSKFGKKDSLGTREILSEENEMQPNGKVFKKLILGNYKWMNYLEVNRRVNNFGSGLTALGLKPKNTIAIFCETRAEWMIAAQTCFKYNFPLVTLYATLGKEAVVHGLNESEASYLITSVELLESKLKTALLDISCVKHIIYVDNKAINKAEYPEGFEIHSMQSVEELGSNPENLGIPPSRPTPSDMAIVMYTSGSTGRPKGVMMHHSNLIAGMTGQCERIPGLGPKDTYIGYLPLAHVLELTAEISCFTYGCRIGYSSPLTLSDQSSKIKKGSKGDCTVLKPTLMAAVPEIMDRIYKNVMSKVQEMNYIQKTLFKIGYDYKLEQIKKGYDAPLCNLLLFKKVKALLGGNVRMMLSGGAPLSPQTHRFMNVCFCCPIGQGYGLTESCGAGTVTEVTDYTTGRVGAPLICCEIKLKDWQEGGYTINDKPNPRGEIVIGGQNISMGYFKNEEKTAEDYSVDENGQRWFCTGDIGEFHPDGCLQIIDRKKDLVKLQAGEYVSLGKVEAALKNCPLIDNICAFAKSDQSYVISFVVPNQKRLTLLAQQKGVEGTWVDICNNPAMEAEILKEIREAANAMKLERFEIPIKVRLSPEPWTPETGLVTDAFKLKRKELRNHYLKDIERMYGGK

[10] = AUC in rat at 0.5 mg/kg, iv; format: ADME, organism-based; set-up: dose 0.5 mg/kg; settings: in vivo
[11] = Volume of distribution at steady state in rat at 0.5 mg/kg, iv; format: ADME, organism-based; settings: in vivo, read-out: Vdss
Mus musculus [12] = assay: In vivo inhibition of ACSL1 in mouse assessed as reduction in acyl-coA production in liver administered orally using palmitic acid as substrate and measured after 17 hrs; format: functional, organism-based; settings: dose 0.3-1 mg/kg
[13] = Metabolic stability in human liver microsomes assessed as compound remaining after 30 mins; format: ADME, Microsome; settings: read-out: Stabilty
[14] = target: T3, Long-chain-fatty-acid--CoA ligase 5 (Homo sapiens, UniProt Q9ULC5); assay: Inhibition of recombinant human ACSL5 assessed as reduction in […] prodution incubated for 90 mins in presence of Coenzyme A, ATP and MgCl2 by MALDI-TOF MS analysis
T3 sequence (Q9ULC5 whole entry): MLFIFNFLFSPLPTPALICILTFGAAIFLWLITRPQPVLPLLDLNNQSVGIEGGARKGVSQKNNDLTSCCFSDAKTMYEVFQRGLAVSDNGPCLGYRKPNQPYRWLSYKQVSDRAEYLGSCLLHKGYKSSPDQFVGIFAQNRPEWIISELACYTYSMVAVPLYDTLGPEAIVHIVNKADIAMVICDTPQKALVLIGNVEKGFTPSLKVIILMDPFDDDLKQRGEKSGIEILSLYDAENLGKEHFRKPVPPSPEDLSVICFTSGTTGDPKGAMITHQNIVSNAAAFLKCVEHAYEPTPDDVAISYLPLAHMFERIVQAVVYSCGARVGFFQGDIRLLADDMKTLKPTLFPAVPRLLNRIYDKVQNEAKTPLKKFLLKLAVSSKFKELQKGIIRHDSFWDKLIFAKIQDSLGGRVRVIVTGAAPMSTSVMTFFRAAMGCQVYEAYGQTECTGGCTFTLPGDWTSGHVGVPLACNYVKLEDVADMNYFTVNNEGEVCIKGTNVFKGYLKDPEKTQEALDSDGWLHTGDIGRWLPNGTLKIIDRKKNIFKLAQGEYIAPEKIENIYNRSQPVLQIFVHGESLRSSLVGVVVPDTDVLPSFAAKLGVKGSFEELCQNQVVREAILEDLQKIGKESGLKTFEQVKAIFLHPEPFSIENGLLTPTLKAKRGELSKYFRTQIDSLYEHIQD

Cytochrome P450 2D6 = Cytochrome P450 2D6 (Homo sapiens, UniProt P10635); assay: Inhibition of CYP2D6 (unknown origin); format: ADME
Chain of Cytochrome P450 2D6 (P10635 whole entry): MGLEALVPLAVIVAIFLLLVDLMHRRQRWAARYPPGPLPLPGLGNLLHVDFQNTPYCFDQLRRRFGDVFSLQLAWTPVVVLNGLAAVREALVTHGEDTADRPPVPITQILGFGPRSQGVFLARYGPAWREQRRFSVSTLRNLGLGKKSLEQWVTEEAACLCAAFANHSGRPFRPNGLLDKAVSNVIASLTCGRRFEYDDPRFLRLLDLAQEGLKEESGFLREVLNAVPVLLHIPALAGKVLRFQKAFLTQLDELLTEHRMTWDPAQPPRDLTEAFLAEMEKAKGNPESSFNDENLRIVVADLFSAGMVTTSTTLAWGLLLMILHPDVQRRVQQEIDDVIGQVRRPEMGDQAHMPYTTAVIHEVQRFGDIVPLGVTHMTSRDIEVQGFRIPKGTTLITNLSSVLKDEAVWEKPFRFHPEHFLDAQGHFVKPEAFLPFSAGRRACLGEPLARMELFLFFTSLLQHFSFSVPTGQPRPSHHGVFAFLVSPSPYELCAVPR

SMILES: Cc1cccc(Cc2nc3cc(O[C@H]4CC[C@@H](C(=O)O)CC4)ccc3n2C)c1
- Tmax [1]: 2.5 h
- inhibition (Mus musculus [2]): Dose-dependent effect
- IC50 [3]: 0.03 µM
- solubility [4]: 307 µg/mL (≈ 811 µM)
- solubility [5]: 8.6 µg/mL (≈ 22.7 µM)
- inhibition (Mus musculus [6]): Dose-dependent effect
- IC50 (Cytochrome P450 2C19): > 20 µM
- IC50 (Cytochrome P450 3A4): > 20 µM
- IC50 (Cytochrome P450 1A2): > 20 µM
- fraction unbound [7]: 0.017
- AUC [8]: 11800 ng·h/mL
- IC50 [9]: > 200 µM
- AUC [10]: 4970 ng·h/mL
- Vd [11]: 0.38 L/kg
- inhibition (Mus musculus [12]): Dose-dependent effect
- remaining at 0.5 h [13]: 96%
- IC50 [14]: > 200 µM
- IC50 (Cytochrome P450 2D6): > 20 µM
